Legend:
[1] = in vivo; set-up: species or system Göttingen minipigs; details: female, Göttingen, minipig, iv, 2 nmol/kg
Method: Studies were conducted in accordance with the Protection of Animals Act, the Act on Experiments on Animals, and the Standard Operating Procedures for Experiments on Animals at Novo Nordisk A/S. The experiments were performed under the supervision and approval of the Danish Government Animal Experiments Inspectorate and the Novo Nordisk Ethical Review Counsel. Female Göttingen minipigs (Ellegaard Göttingen Minipigs A/S), 7–14 months old and weighing 16–35 kg, were housed individually and fed once daily with a restricted SDS minipig diet (Special Diets Services). At least one week before the study, two permanent central venous catheters were implanted in the caudal vena cava of each animal. The animals were fasted for approximately 18 h before dosing and 4 h after dosing but had ad libitum access to water during the whole period. Test compounds dissolved to a concentration of 20–40 nmol/mL in a vehicle (pH 7.4) containing 0.025% polysorbate-20, 10 mM sodium phosphate, and 250 mM glycerol were administered via an intravenous injection through one catheter at a dose of 2 nmol/kg. Blood samples were collected in 8 mM aqueous EDTA for up to 14 days post dosing, preferably through the other catheter, then centrifuged at 4 °C and ∼2000g for 10 min. Plasma was isolated and immediately frozen until RP-HPLC/MS analysis. Individual plasma concentration–time profiles were analysed by a non-compartmental model in Phoenix WinNonLin software (Pharsight Inc.), and the resulting terminal half-lives were determined at the harmonic mean.

[2] = biological target: T1, hGcg Receptor (Homo sapiens, UniProt P47871); assay: Receptor activation: cAMP production by CRE-luciferase reporter in stably transfected BHK cells; assay type: cell-based; details: compared to the native ligand for the receptor
T1 construct: expressed in transfected cells; host or cells: baby hamster kidney (BHK) cells, stably transfected, with CRE-firefly luciferase reporter
T1 sequence (P47871 26-477): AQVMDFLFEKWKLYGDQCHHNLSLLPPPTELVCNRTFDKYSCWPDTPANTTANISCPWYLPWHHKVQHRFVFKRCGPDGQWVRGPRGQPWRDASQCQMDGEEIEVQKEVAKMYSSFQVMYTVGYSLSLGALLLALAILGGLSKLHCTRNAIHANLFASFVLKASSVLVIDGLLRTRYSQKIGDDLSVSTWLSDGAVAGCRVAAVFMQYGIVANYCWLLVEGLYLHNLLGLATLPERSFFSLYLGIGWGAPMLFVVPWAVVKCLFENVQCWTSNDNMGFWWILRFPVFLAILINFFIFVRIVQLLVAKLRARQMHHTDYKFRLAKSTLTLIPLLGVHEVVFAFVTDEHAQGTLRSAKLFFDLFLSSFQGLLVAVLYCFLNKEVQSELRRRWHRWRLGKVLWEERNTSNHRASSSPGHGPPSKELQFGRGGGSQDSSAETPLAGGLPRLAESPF
Method: (§1) Cyclic AMP (cAMP) production was assessed as a proxy for receptor activation using stably transfected baby hamster kidney (BHK) cell lines expressing the DNA for one individual receptor (GLP-1R, GIPR, GcgR; human- or mouse-specific sequence) and the DNA for the firefly luciferase reporter gene linked to the cAMP response element (CRE). The cells were kept in continuous culture at 37 °C and 5% CO2 in Dulbecco's Modified Eagle Medium (DMEM) supplemented with 10% heat-inactivated fetal bovine serum (HI-FBS), 300 μg/mL hygromycin, and 500 μg/mL G418; for cell lines expressing GIPR, the G418 concentration was lowered to 400 μg/mL. Cells were plated in a 96-well poly-D-lysine-coated plate at 5,000 cells per well in growth media and incubated overnight at 37 °C with 5% CO2. After the overnight incubation, the media was removed, the plate was washed once in Dulbecco's phosphase-buffered saline (DPBS), and 50 μL of assay buffer (DMEM without phenol red, 10 mM HEPES, 1x Glutamax, 1% ovalbumin, 0.1% Pluronic F-68) was added to each well. […] Aliquots of the dilution curves were added to the cell plate in a volume of 50 μL per well resulting in final assay concentrations ranging from 1 × 10^−14 to 1 × 10^−7 M. The assay plate was incubated for 3 h at 37 °C and 5% CO2. After the incubation, the assay plate was washed once with DPBS. A 100 μL aliquot of DPBS was added to each well followed by 100 μL of steadylite plus reagent (PerkinElmer). The assay plate was covered to protect reagent from light, shaken at 250 rpm at room temperature for 30 min, and read in a microtiter plate reader. EC50 values were calculated using Prism software (GraphPad) with the nonlinear regression log(agonist) vs. response. A minimum of two replicates were measured for each sample.

[3] = biological target: T2, hGIP Receptor (Homo sapiens, UniProt P48546); assay: as above; assay type: cell-based; details: compared to the native ligand for the receptor
T2 construct: expressed in transfected cells; host or cells: baby hamster kidney (BHK) cells, stably transfected, with CRE-firefly luciferase reporter
T2 sequence (P48546 22-466): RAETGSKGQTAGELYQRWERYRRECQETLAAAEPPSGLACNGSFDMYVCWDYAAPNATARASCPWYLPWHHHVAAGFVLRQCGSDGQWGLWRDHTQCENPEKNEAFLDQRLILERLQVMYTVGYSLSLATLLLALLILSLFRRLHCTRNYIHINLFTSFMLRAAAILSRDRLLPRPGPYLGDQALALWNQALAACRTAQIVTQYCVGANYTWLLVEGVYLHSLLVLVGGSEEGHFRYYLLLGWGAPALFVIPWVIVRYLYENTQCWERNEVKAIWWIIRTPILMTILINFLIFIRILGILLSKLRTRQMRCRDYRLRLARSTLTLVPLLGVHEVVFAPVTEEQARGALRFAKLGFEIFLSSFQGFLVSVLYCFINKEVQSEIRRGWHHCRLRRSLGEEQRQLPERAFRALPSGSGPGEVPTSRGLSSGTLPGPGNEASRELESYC
Method: as §1

[4] = biological target: T3, hGLP-1 Receptor (Homo sapiens, UniProt P43220); assay: as above; assay type: cell-based; details: compared to the native ligand for the receptor
T3 construct: expressed in transfected cells; host or cells: baby hamster kidney (BHK) cells, stably transfected, with CRE-firefly luciferase reporter
T3 sequence (P43220 24-463): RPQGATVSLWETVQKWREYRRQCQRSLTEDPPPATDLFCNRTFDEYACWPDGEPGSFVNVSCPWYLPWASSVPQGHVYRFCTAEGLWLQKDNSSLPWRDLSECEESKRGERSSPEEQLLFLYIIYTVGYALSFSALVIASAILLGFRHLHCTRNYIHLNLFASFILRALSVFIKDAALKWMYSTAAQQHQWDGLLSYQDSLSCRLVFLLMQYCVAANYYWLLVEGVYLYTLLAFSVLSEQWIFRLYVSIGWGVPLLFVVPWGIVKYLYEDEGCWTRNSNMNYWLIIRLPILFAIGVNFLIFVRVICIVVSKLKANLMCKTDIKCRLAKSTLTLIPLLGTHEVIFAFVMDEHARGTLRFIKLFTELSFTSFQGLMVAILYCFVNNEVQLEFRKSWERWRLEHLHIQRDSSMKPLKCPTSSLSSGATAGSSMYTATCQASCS
Method: as §1

SMILES | Vd [1] [L/kg] | clearance [1] [mL/h/kg] | hGcg Receptor Relative Potency % [2] [%] | hGIP Receptor Relative Potency % [3] [%] | hGLP-1 Receptor Relative Potency % [4] [%]
CC[C@H](C)[C@H](NC(=O)[C@H](CO)NC(=O)[C@H](Cc1ccc(O)cc1)NC(=O)[C@H](CC(=O)O)NC(=O)[C@H](CO)NC(=O)[C@@H](NC(=O)[C@H](Cc1ccccc1)NC(=O)[C@@H](NC(=O)CNC(=O)[C@H](CCC(N)=O)NC(=O)C(C)(C)NC(=O)[C@@H](N)Cc1ccc(O)cc1)[C@@H](C)O)[C@@H](C)O)C(=O)N[C@@H](Cc1ccc(O)cc1)C(=O)N[C@@H](CC(C)C)C(=O)N[C@@H](CC(=O)O)C(=O)N[C@@H](CCCCNC(=O)COCCOCCNC(=O)COCCOCCNC(=O)CC[C@H](NC(=O)CCCCCCCCCCCCCCCCC(=O)O)C(=O)O)C(=O)N[C@@H](CCC(N)=O)C(=O)N[C@@H](C)C(=O)N[C@@H](C)C(=O)NC(C)(C)C(=O)N[C@@H](CCC(=O)O)C(=O)N[C@@H](Cc1ccccc1)C(=O)N[C@H](C(=O)N[C@@H](CC(N)=O)C(=O)N[C@@H](Cc1c[nH]c2ccccc12)C(=O)N[C@@H](CC(C)C)C(=O)N[C@@H](CC(C)C)C(=O)N[C@@H](C)C(=O)NCC(=O)NCC(=O)N1CCC[C@H]1C(=O)N[C@@H](CO)C(=O)N[C@@H](CO)C(=O)NCC(=O)N[C@@H](C)C(=O)N1CCC[C@H]1C(=O)N1CCC[C@H]1C(=O)N1CCC[C@H]1C(=O)N[C@@H](CO)C(N)=O)C(C)C [Compound 7] | 0.121 | 1.4 | 12 | 38 | 93
CC[C@H](C)[C@H](NC(=O)[C@H](CO)NC(=O)[C@H](Cc1ccc(O)cc1)NC(=O)[C@H](CC(=O)O)NC(=O)[C@H](CO)NC(=O)[C@@H](NC(=O)[C@H](Cc1ccccc1)NC(=O)[C@@H](NC(=O)CNC(=O)[C@H](CCC(N)=O)NC(=O)C(C)(C)NC(=O)[C@@H](N)Cc1ccc(O)cc1)[C@@H](C)O)[C@@H](C)O)C(=O)N[C@@H](Cc1ccc(O)cc1)C(=O)N[C@@H](CC(C)C)C(=O)N[C@@H](CC(=O)O)C(=O)N[C@@H](CCCCNC(=O)COCCOCCNC(=O)COCCOCCNC(=O)CC[C@H](NC(=O)CCCCCCCCCCCCCCCCCCC(=O)O)C(=O)O)C(=O)N[C@@H](CCC(N)=O)C(=O)N[C@@H](C)C(=O)N[C@@H](C)C(=O)NC(C)(C)C(=O)N[C@@H](CCC(=O)O)C(=O)N[C@@H](Cc1ccccc1)C(=O)N[C@H](C(=O)N[C@@H](CC(N)=O)C(=O)N[C@@H](Cc1c[nH]c2ccccc12)C(=O)N[C@@H](CC(C)C)C(=O)N[C@@H](CC(C)C)C(=O)N[C@@H](C)C(=O)NCC(=O)NCC(=O)N1CCC[C@H]1C(=O)N[C@@H](CO)C(=O)N[C@@H](CO)C(=O)NCC(=O)N[C@@H](C)C(=O)N1CCC[C@H]1C(=O)N1CCC[C@H]1C(=O)N1CCC[C@H]1C(=O)N[C@@H](CO)C(N)=O)C(C)C [Compound 8] | 0.154 | 1.2 | 6 | 39 | 101

Reference: publication PMC9305623, “Next generation GLP-1/GIP/glucagon triple agonists normalize body weight in obese mice” (Molecular Metabolism, 2022)
